# Tests used:
# Assay type in all cases: toxicity, cell-based
# HEK-293T = test: Incucyte cell viability with HEK293T; conditions: human, 10 µM, compound concentration 10 uM
# Fibroblast = test: Incucyte cell viability with human fibroblast; conditions: 10 µM, compound concentration 10 uM
# U2OS = test: Incucyte cell viability with U2OS; conditions: human, 10 µM, compound concentration 10 uM
# Further: unitless GR value; below 1 slowed growth and below 0 cell loss.
structure (smiles),measurement,setting,value
CCN(C)C(=O)c1ccc2c(c1)NC(=O)/C2=C(\NC1CCN(C)CC1)c1ccccc1,Growth Rate,"HEK-293T; 6 h, replicate number 1",0.43
same,Growth Rate,"HEK-293T; 12 h, replicate number 1",0.82
same,Growth Rate,"HEK-293T; 18 h, replicate number 2",0.82
same,Growth Rate,"HEK-293T; 24 h, replicate number 2",0.89
same,Growth Rate,"Fibroblast; 0 h, replicate number 2",-0.73
same,Growth Rate,"Fibroblast; 6 h, replicate number 2",0.61
same,Growth Rate,"Fibroblast; 24 h, replicate number 2",0.93
same,Growth Rate,"U2OS; 0 h, replicate number 1",0.88
same,Growth Rate,"U2OS; 0 h, replicate number 2",0.18
same,Growth Rate,"U2OS; 6 h, replicate number 1",0.68
same,Growth Rate,"U2OS; 12 h, replicate number 1",0.93
same,Growth Rate,"U2OS; 24 h, replicate number 1",0.92
COc1cc(-c2nn([C@H]3CC[C@H](N4CCN(C(C)=O)CC4)CC3)c3ncnc(N)c23)ccc1NC(=O)c1cc2ccccc2n1C,Growth Rate,"HEK-293T; 6 h, replicate number 1",-0.95
same,Growth Rate,"HEK-293T; 6 h, replicate number 2",-0.96
same,Growth Rate,"HEK-293T; 12 h, replicate number 1",-0.39
same,Growth Rate,"HEK-293T; 12 h, replicate number 2",-0.18
same,Growth Rate,"HEK-293T; 18 h, replicate number 1",0.38
same,Growth Rate,"HEK-293T; 18 h, replicate number 2",0.59
same,Growth Rate,"HEK-293T; 24 h, replicate number 1",0.69
same,Growth Rate,"HEK-293T; 24 h, replicate number 2",0.89
same,Growth Rate,"Fibroblast; 0 h, replicate number 1",-1
same,Growth Rate,"Fibroblast; 6 h, replicate number 1",-0.52
same,Growth Rate,"Fibroblast; 6 h, replicate number 2",-0.77
same,Growth Rate,"Fibroblast; 12 h, replicate number 1",-0.69
same,Growth Rate,"Fibroblast; 12 h, replicate number 2",0.45
same,Growth Rate,"Fibroblast; 18 h, replicate number 1",-0.56
same,Growth Rate,"Fibroblast; 24 h, replicate number 1",-0.45
same,Growth Rate,"U2OS; 0 h, replicate number 1",-0.86
same,Growth Rate,"U2OS; 0 h, replicate number 2",0.2
same,Growth Rate,"U2OS; 6 h, replicate number 1",0.32
same,Growth Rate,"U2OS; 6 h, replicate number 2",0.56
same,Growth Rate,"U2OS; 12 h, replicate number 1",0.44
same,Growth Rate,"U2OS; 12 h, replicate number 2",0.61
same,Growth Rate,"U2OS; 18 h, replicate number 1",0.44
same,Growth Rate,"U2OS; 18 h, replicate number 2",0.95
same,Growth Rate,"U2OS; 24 h, replicate number 1",0.44
same,Growth Rate,"U2OS; 24 h, replicate number 2",0.91
C[C@@H]1COCCN1c1cc(=O)n2c(n1)N(Cc1cncc(Cl)c1)[C@H](C(F)(F)F)CC2,Growth Rate,"HEK-293T; 6 h, replicate number 1",-0.3
same,Growth Rate,"HEK-293T; 6 h, replicate number 2",-0.11
same,Growth Rate,"HEK-293T; 12 h, replicate number 1",0.15
same,Growth Rate,"HEK-293T; 12 h, replicate number 2",0.44
same,Growth Rate,"HEK-293T; 18 h, replicate number 1",0.39
same,Growth Rate,"HEK-293T; 18 h, replicate number 2",0.54
same,Growth Rate,"HEK-293T; 24 h, replicate number 1",0.39
same,Growth Rate,"HEK-293T; 24 h, replicate number 2",0.45
same,Growth Rate,"Fibroblast; 0 h, replicate number 2",-0.86
same,Growth Rate,"Fibroblast; 6 h, replicate number 1",0.36
same,Growth Rate,"Fibroblast; 6 h, replicate number 2",-0.75
same,Growth Rate,"Fibroblast; 12 h, replicate number 1",0.72
same,Growth Rate,"Fibroblast; 12 h, replicate number 2",0.29
same,Growth Rate,"Fibroblast; 18 h, replicate number 1",0.92
same,Growth Rate,"Fibroblast; 24 h, replicate number 1",0.83
same,Growth Rate,"U2OS; 0 h, replicate number 1",0.01
same,Growth Rate,"U2OS; 6 h, replicate number 1",0.61
same,Growth Rate,"U2OS; 12 h, replicate number 1",0.92
same,Growth Rate,"U2OS; 12 h, replicate number 2",0.89
same,Growth Rate,"U2OS; 18 h, replicate number 1",0.87
same,Growth Rate,"U2OS; 18 h, replicate number 2",0.95
same,Growth Rate,"U2OS; 24 h, replicate number 1",0.73
COc1cc2nc(C)nc(N[C@H](C)c3cc(N)cc(C(F)(F)F)c3)c2cc1O[C@H]1CCOC1,Growth Rate,"HEK-293T; 6 h, replicate number 1",0.91
same,Growth Rate,"HEK-293T; 12 h, replicate number 1",0.88
same,Growth Rate,"Fibroblast; 0 h, replicate number 1",-1
same,Growth Rate,"Fibroblast; 6 h, replicate number 1",0.72
same,Growth Rate,"Fibroblast; 6 h, replicate number 2",-0.84
same,Growth Rate,"Fibroblast; 12 h, replicate number 2",0.03
same,Growth Rate,"Fibroblast; 18 h, replicate number 2",0.65
same,Growth Rate,"Fibroblast; 24 h, replicate number 2",0.88
same,Growth Rate,"U2OS; 0 h, replicate number 1",0.75
same,Growth Rate,"U2OS; 6 h, replicate number 1",0.51
same,Growth Rate,"U2OS; 6 h, replicate number 2",0.96
same,Growth Rate,"U2OS; 18 h, replicate number 1",0.93
same,Growth Rate,"U2OS; 24 h, replicate number 1",0.83
CNC(=O)COc1cc2cc(Nc3nc(N4CCC(C(=O)N(C)C)CC4)ncc3Cl)cc(OC)c2n(C)c1=O,Growth Rate,"HEK-293T; 6 h, replicate number 1",0.46
same,Growth Rate,"HEK-293T; 6 h, replicate number 2",0.13
same,Growth Rate,"HEK-293T; 12 h, replicate number 1",0.74
same,Growth Rate,"HEK-293T; 12 h, replicate number 2",0.41
same,Growth Rate,"HEK-293T; 18 h, replicate number 1",0.57
same,Growth Rate,"HEK-293T; 18 h, replicate number 2",0.58
same,Growth Rate,"HEK-293T; 24 h, replicate number 1",0.67
same,Growth Rate,"HEK-293T; 24 h, replicate number 2",0.66
same,Growth Rate,"Fibroblast; 0 h, replicate number 2",0
same,Growth Rate,"Fibroblast; 6 h, replicate number 2",0.46
same,Growth Rate,"Fibroblast; 24 h, replicate number 2",0.87
same,Growth Rate,"U2OS; 0 h, replicate number 2",0.59
same,Growth Rate,"U2OS; 6 h, replicate number 1",0.94
same,Growth Rate,"U2OS; 12 h, replicate number 2",0.77
same,Growth Rate,"U2OS; 18 h, replicate number 2",0.87
same,Growth Rate,"U2OS; 24 h, replicate number 1",0.92
same,Growth Rate,"U2OS; 24 h, replicate number 2",0.91
Cn1cncc1-c1cn(-c2cccc(C(=O)Nc3cccc(C(F)(F)F)c3)c2)nn1,Growth Rate,"HEK-293T; 6 h, replicate number 1",-0.32
same,Growth Rate,"HEK-293T; 6 h, replicate number 2",-0.41
same,Growth Rate,"HEK-293T; 12 h, replicate number 1",-0.13
same,Growth Rate,"HEK-293T; 12 h, replicate number 2",0.03
same,Growth Rate,"HEK-293T; 18 h, replicate number 1",0.06
same,Growth Rate,"HEK-293T; 18 h, replicate number 2",0.14
same,Growth Rate,"HEK-293T; 24 h, replicate number 1",0.24
same,Growth Rate,"HEK-293T; 24 h, replicate number 2",0.3
same,Growth Rate,"Fibroblast; 6 h, replicate number 2",0.53
same,Growth Rate,"Fibroblast; 12 h, replicate number 1",0.87
same,Growth Rate,"Fibroblast; 12 h, replicate number 2",0.77
same,Growth Rate,"Fibroblast; 18 h, replicate number 1",0.87
same,Growth Rate,"Fibroblast; 18 h, replicate number 2",0.64
same,Growth Rate,"Fibroblast; 24 h, replicate number 1",0.48
same,Growth Rate,"Fibroblast; 24 h, replicate number 2",0.87
same,Growth Rate,"U2OS; 0 h, replicate number 2",0.55
same,Growth Rate,"U2OS; 6 h, replicate number 1",0.83
same,Growth Rate,"U2OS; 12 h, replicate number 2",0.86
same,Growth Rate,"U2OS; 18 h, replicate number 2",0.89
same,Growth Rate,"U2OS; 24 h, replicate number 1",0.95
CSc1ccc(C[C@@H](C)C(=O)O)cc1Nc1nc(N2CC[C@H](N(C)C)C2)cc(C(F)F)c1C#N.O=C(O)C(F)(F)F,Growth Rate,"HEK-293T; 6 h, replicate number 1",0.25
same,Growth Rate,"HEK-293T; 12 h, replicate number 1",0.39
same,Growth Rate,"HEK-293T; 12 h, replicate number 2",0.58
same,Growth Rate,"HEK-293T; 18 h, replicate number 1",0.43
same,Growth Rate,"HEK-293T; 18 h, replicate number 2",0.51
same,Growth Rate,"HEK-293T; 24 h, replicate number 1",0.48
same,Growth Rate,"HEK-293T; 24 h, replicate number 2",0.58
same,Growth Rate,"Fibroblast; 0 h, replicate number 1",-1
same,Growth Rate,"Fibroblast; 6 h, replicate number 1",-0.12
same,Growth Rate,"Fibroblast; 12 h, replicate number 1",0.16
same,Growth Rate,"Fibroblast; 12 h, replicate number 2",0.34
same,Growth Rate,"Fibroblast; 18 h, replicate number 1",0.21
same,Growth Rate,"Fibroblast; 18 h, replicate number 2",0.8
same,Growth Rate,"Fibroblast; 24 h, replicate number 1",0.3
same,Growth Rate,"Fibroblast; 24 h, replicate number 2",0.79
same,Growth Rate,"U2OS; 6 h, replicate number 1",0.8

# Reference: ChEMBL document CHEMBL5303304, “EUbOPEN Chemogenomics Library - IncuCyte” (2023)
